Among the test systems are HOP-92 NSCLC; SK-OV-3 ovarian; T-47D breast; SF-295 CNS; KM12 colon; NCI/ADR-RES ovarian; IGROV1 ovarian; RPMI-8226 leukemia.
Holding throughout (experiment): NCI anticancer screen, dose series, 48 h

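Cells were grown in 96-well plates and exposed to each compound for 48 hours at five concentrations; endpoints were interpolated linearly between bracketing concentrations, or set to the highest concentration if not reached. GI50: concentration for 50% inhibition of growth. TGI: total growth inhibition.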

As to `O=C(O)c1cc(O)c2c(c1)C(C1c3cc(C(=O)O)cc(O)c3C(=O)c3c(OC4OC(CO)C(O)C(O)C4O)cccc31)c1cccc(OC3OC(CO)C(O)C(O)C3O)c1C2=O` (centres undefined), the GI50 in the test with HOP-92 NSCLC, in the test with SK-OV-3 ovarian, in the test on T-47D breast, in the test on SF-295 CNS, with KM12 colon and in the test with NCI/ADR-RES ovarian was more than 100 µM throughout. For the same compound, the GI50 in the test with IGROV1 ovarian was more than 100 µM. In addition, the TGI in the test with HOP-92 NSCLC, in the test with SK-OV-3 ovarian, in the test on T-47D breast, with SF-295 CNS, with KM12 colon and in the test on NCI/ADR-RES ovarian was more than 100 µM each time. In addition, in the test with IGROV1 ovarian, the TGI is more than 100 µM.

With `O=c1[nH]c2cc(Cl)ccc2n1C1CCN(CCCC(c2ccc(F)cc2)c2ccc(F)cc2)CC1`, the GI50 in the test on HOP-92 NSCLC was 1.01 µM; with SK-OV-3 ovarian, 1.82 µM; in the test with T-47D breast it was 1.83 µM; with RPMI-8226 leukemia, 0.711 µM; in the test with KM12 colon, 1.68 µM; in the test with NCI/ADR-RES ovarian it was 1.74 µM. In addition, the GI50 in the test with IGROV1 ovarian is 1.98 µM. Further, the TGI in the test with HOP-92 NSCLC is 2.41 µM; with SK-OV-3 ovarian it was 3.72 µM; in the test on T-47D breast, 3.79 µM; in the test on RPMI-8226 leukemia it was 3.6 µM; with KM12 colon, 3.27 µM; with NCI/ADR-RES ovarian, 3.61 µM. For the same compound, the TGI in the test with IGROV1 ovarian is 3.87 µM.

In the case of `c1ccc2c3ccn4cc5c(cc4c-3nc2c1)CCCC5`, the GI50 with HOP-92 NSCLC is 5.04 µM; in the test with SK-OV-3 ovarian it was 3.41 µM; in the test on T-47D breast, 3.27 µM; in the test with SF-295 CNS, 2.37 µM; in the test with RPMI-8226 leukemia, 5.11 µM; in the test on NCI/ADR-RES ovarian, 55 µM. Moreover, the TGI was 48.7 µM with HOP-92 NSCLC; 10.5 µM with SK-OV-3 ovarian; 15 µM in the test on T-47D breast; 10.5 µM with SF-295 CNS; more than 100 µM in the test with RPMI-8226 leukemia; 8.59 µM with KM12 colon. The same compound showed a TGI in the test with NCI/ADR-RES ovarian of more than 100 µM.

As for `COc1cc2cn3c4ccc(O)cc4[nH]c(=O)c3c2cc1OC`, the GI50 with HOP-92 NSCLC was 2.14 µM; with SK-OV-3 ovarian, 0.0367 µM; in the test with T-47D breast it was 0.0199 µM; with RPMI-8226 leukemia, 1.25 µM; in the test with KM12 colon, 0.0451 µM; in the test with NCI/ADR-RES ovarian it was 0.0883 µM. Further, the TGI with HOP-92 NSCLC turned out to be 7.72 µM; with SK-OV-3 ovarian, 1.95 µM; with T-47D breast it was 2.05 µM; in the test with RPMI-8226 leukemia, 10.4 µM; in the test on KM12 colon it was 1.48 µM; in the test on NCI/ADR-RES ovarian, 2.01 µM.

`CCCS(=O)(=O)Nc1ccc(Nc2c3ccccc3nc3ccccc23)c(OC)c1`: the TGI in the test with HOP-92 NSCLC came to 17.5 µM; with SK-OV-3 ovarian, 16.4 µM; in the test with T-47D breast it was 20.5 µM; in the test on SF-295 CNS it was 8.31 µM; with KM12 colon, 14.7 µM; in the test with NCI/ADR-RES ovarian it was 37.1 µM. Besides, the TGI in the test on IGROV1 ovarian worked out at 18.2 µM.

With `O/N=C\c1c(O)ccc2ccccc12`, the TGI with HOP-92 NSCLC, in the test on SK-OV-3 ovarian, with T-47D breast, in the test with SF-295 CNS, in the test on RPMI-8226 leukemia and in the test on KM12 colon was more than 100 µM each time. The compound further returned a TGI with NCI/ADR-RES ovarian of more than 100 µM.

For `O=C(CN(C1CCCCC1)C1CCCCC1)Nc1ccc(S(=O)(=O)c2ccc(NC(=O)CN(C3CCCCC3)C3CCCCC3)cc2)cc1`, the GI50 in the test on HOP-92 NSCLC was 1.39 µM; in the test with SK-OV-3 ovarian, 8.64 µM; in the test on T-47D breast it was 1.15 µM; in the test on SF-295 CNS, 1.5 µM; with KM12 colon it was 0.585 µM; in the test with NCI/ADR-RES ovarian, 0.89 µM. Also, the GI50 in the test with IGROV1 ovarian is 0.421 µM. The TGI was 2.93 µM in the test on HOP-92 NSCLC; 21.6 µM in the test on SK-OV-3 ovarian; 3.74 µM in the test on T-47D breast; 2.96 µM with SF-295 CNS; 2.05 µM with KM12 colon; 6.31 µM with NCI/ADR-RES ovarian. Further, the TGI in the test on IGROV1 ovarian is 1.6 µM.

Consider `O=C(Nc1cccc(Cl)c1Cl)c1cccc(NC2=C(Cl)C(=O)N(Cc3ccccc3)C2=O)c1`, for which the GI50 with SK-OV-3 ovarian was more than 100 µM; with T-47D breast it was more than 100 µM; with SF-295 CNS, 35.7 µM; in the test with RPMI-8226 leukemia, 7.96 µM; with KM12 colon it was 82.8 µM; with NCI/ADR-RES ovarian, 12.6 µM. Besides, the GI50 with IGROV1 ovarian was 11.7 µM. Besides, the TGI with SK-OV-3 ovarian was more than 100 µM; with T-47D breast, more than 100 µM; in the test on SF-295 CNS it was more than 100 µM; in the test with RPMI-8226 leukemia it was 35.1 µM; in the test with KM12 colon, more than 100 µM; in the test with NCI/ADR-RES ovarian, 62.5 µM. Further, the TGI in the test with IGROV1 ovarian turned out to be 59.6 µM.

Turning to `CCOC(=O)C1=C(C)N(N)C(=S)NC1c1ccc(C)cc1` (centres undefined), the GI50 in the test on HOP-92 NSCLC is 0.932 µM; in the test with T-47D breast it was 23.1 µM; in the test on SF-295 CNS, 36.9 µM; with RPMI-8226 leukemia, 44.7 µM; in the test with KM12 colon, 64.4 µM; with NCI/ADR-RES ovarian, 61.9 µM. In the test with IGROV1 ovarian, the GI50 was 28.2 µM. Also, the TGI with HOP-92 NSCLC, in the test on T-47D breast, in the test on SF-295 CNS, with RPMI-8226 leukemia, in the test with KM12 colon and in the test with NCI/ADR-RES ovarian was more than 100 µM each time. The compound further gave a TGI in the test on IGROV1 ovarian of more than 100 µM.

These data come from PubChem BioAssay (NCI).
